Measured values from US4880817A, “O-functionalized derivatives of substituted isoquinolin-3-ols having cardiotonic and/or phosphodiesterase fraction III inhibiting properties and/or renal vasodilating properties” (Ortho Pharmaceutical Corporation, priority 1987, dated 1989).

Test system: adult mongrel dogs
Test: Renal vasodilating activity in anesthetized dogs
Format: in vivo, mongrel dog
Conditions: Canis lupus familiaris, read-out: HR: percent change in heart rate, dose 1.2 mpk, relative to controls
Method: Goldberg et al., J. Pharmacol. Exp. Ther., 163, 188 (1968), performed an investigation of the structural requirements for dopamine-like renal vasodilation of phenethylamines and apomorphine. The following procedure is a variation of the assay described in that report.
Adult mongrel dogs were anesthetized and surgically prepared for electromagnetic measurement of renal artery blood flow. A carotid artery was cannulated for measuring arterial blood pressure and drugs were administered intravenously or intraarterially (via the renal artery). Heart rate was monitored with a cardiotachometer. Renal vascular resistance was calculated as the ratio of mean arterial blood pressure to renal artery blood flow. Dopamine was infused intravenously at 3 μg/kg/min for ten minutes (at an infusion rate of about 1 ml/min) to determine responsiveness of each dog to renal dopamine receptor stimulation. Cumulative dose-response data were obtained by infusing a compound of this invention at progressively increasing (usually three-fold) infusion rates, each dose being infused for five minutes. The maximum percent change from pre-drug control in renal artery blood flow (or in renal vascular resistance) was determined for each infusion dose.
RBF, RVR, MABP, and HR values are percent changes in renal blood flow, renal vascular resistance, mean arterial blood pressure, and heart rate, respectively, relative to control values.

Question: Which change in vivo at 1.2 mg/kg does the source give for `CCN(CC)C(=O)Oc1nc(C)c2cc(OC)c(OC)cc2c1NC(N)=O` [Cmpd 47, 3-Diethylcarbamyloxy-6,7-dimethoxy-1-methyl-4-ureidoisoquinoline] here?
Answer: -3%

Question: How did the change in vivo at 1.2 mg/kg turn out when `C=CCNC(=O)Nc1c(OC(=O)N(CC)CC)nc(C)c2cc(OC)c(OC)cc12` [Cmpd 50] was run?
Answer: -2%

Question: Which change in vivo at 1.2 mg/kg does the source give for `CCCCNC(=O)Nc1c(OC(=O)N2CCCC2)nc(C)c2cc(OC)c(OC)cc12` [Cmpd 55] here?
Answer: 2%

Question: Which change in vivo at 1.2 mg/kg does the source give for `CCCCNC(=O)Nc1c(OC(=O)N(c2ccccc2)c2ccccc2)nc(C)c2cc(OC)c(OC)cc12` [Cmpd 57] here?
Answer: 7%

Question: For `C=CCNC(=O)Nc1c(OC(=O)N2CCCC2)nc(C)c2cc(OC)c(OC)cc12` [Cmpd 59], which change in vivo at 1.2 mg/kg is on record?
Answer: 2%

Question: `C=CCNC(=O)Nc1c(OC(=O)N(c2ccccc2)c2ccccc2)nc(C)c2cc(OC)c(OC)cc12` [Cmpd 60] was tested. Which change in vivo at 1.2 mg/kg did it give?
Answer: 8%

Question: `CCCCNC(=O)Nc1c(OC(=O)N(C(C)C)C(C)C)nc(C)c2cc(OC)c(OC)cc12` [Cmpd 61] was tested. Which change in vivo at 1.2 mg/kg did it give?
Answer: 11%

Question: With `C=CCNC(=O)Nc1c(OC(=O)N(C(C)C)C(C)C)nc(C)c2cc(OC)c(OC)cc12` [Cmpd 62] as the molecule, how does the change in vivo at 1.2 mg/kg read?
Answer: 0%

Same assay, conditions: Canis lupus familiaris, read-out: MABP: percent change in mean arterial blood pressure, dose 1.2 mpk, relative to controls

Question: For `CCN(CC)C(=O)Oc1nc(C)c2cc(OC)c(OC)cc2c1NC(N)=O` [Cmpd 47, 3-Diethylcarbamyloxy-6,7-dimethoxy-1-methyl-4-ureidoisoquinoline], which change in vivo at 1.2 mg/kg is on record?
Answer: 11%

Question: `C=CCNC(=O)Nc1c(OC(=O)N(CC)CC)nc(C)c2cc(OC)c(OC)cc12` [Cmpd 50] was tested. Which change in vivo at 1.2 mg/kg did it give?
Answer: 0%

Question: For `CCCCNC(=O)Nc1c(OC(=O)N2CCCC2)nc(C)c2cc(OC)c(OC)cc12` [Cmpd 55], which change in vivo at 1.2 mg/kg is on record?
Answer: -4%

Question: With `CCCCNC(=O)Nc1c(OC(=O)N(c2ccccc2)c2ccccc2)nc(C)c2cc(OC)c(OC)cc12` [Cmpd 57] as the molecule, how does the change in vivo at 1.2 mg/kg read?
Answer: 4%

Question: Which change in vivo at 1.2 mg/kg does the source give for `C=CCNC(=O)Nc1c(OC(=O)N2CCCC2)nc(C)c2cc(OC)c(OC)cc12` [Cmpd 59] here?
Answer: 1%

Question: With `C=CCNC(=O)Nc1c(OC(=O)N(c2ccccc2)c2ccccc2)nc(C)c2cc(OC)c(OC)cc12` [Cmpd 60] as the molecule, how does the change in vivo at 1.2 mg/kg read?
Answer: 4%

Question: With `CCCCNC(=O)Nc1c(OC(=O)N(C(C)C)C(C)C)nc(C)c2cc(OC)c(OC)cc12` [Cmpd 61] as the molecule, how does the change in vivo at 1.2 mg/kg read?
Answer: -1%

Question: Which change in vivo at 1.2 mg/kg does the source give for `C=CCNC(=O)Nc1c(OC(=O)N(C(C)C)C(C)C)nc(C)c2cc(OC)c(OC)cc12` [Cmpd 62] here?
Answer: 11%

Same assay, conditions: Canis lupus familiaris, read-out: RBF: percent change in renal blood flow, dose 1.2 mpk, relative to controls

Question: How did the change in vivo at 1.2 mg/kg turn out when `CCN(CC)C(=O)Oc1nc(C)c2cc(OC)c(OC)cc2c1NC(N)=O` [Cmpd 47, 3-Diethylcarbamyloxy-6,7-dimethoxy-1-methyl-4-ureidoisoquinoline] was run?
Answer: 17%

Question: How did the change in vivo at 1.2 mg/kg turn out when `C=CCNC(=O)Nc1c(OC(=O)N(CC)CC)nc(C)c2cc(OC)c(OC)cc12` [Cmpd 50] was run?
Answer: 20%

Question: `CCCCNC(=O)Nc1c(OC(=O)N2CCCC2)nc(C)c2cc(OC)c(OC)cc12` [Cmpd 55] was tested. Which change in vivo at 1.2 mg/kg did it give?
Answer: 14%

Question: With `CCCCNC(=O)Nc1c(OC(=O)N(c2ccccc2)c2ccccc2)nc(C)c2cc(OC)c(OC)cc12` [Cmpd 57] as the molecule, how does the change in vivo at 1.2 mg/kg read?
Answer: 28%

Question: How did the change in vivo at 1.2 mg/kg turn out when `C=CCNC(=O)Nc1c(OC(=O)N2CCCC2)nc(C)c2cc(OC)c(OC)cc12` [Cmpd 59] was run?
Answer: 23%

Question: `C=CCNC(=O)Nc1c(OC(=O)N(c2ccccc2)c2ccccc2)nc(C)c2cc(OC)c(OC)cc12` [Cmpd 60] was tested. Which change in vivo at 1.2 mg/kg did it give?
Answer: 27%

Question: With `CCCCNC(=O)Nc1c(OC(=O)N(C(C)C)C(C)C)nc(C)c2cc(OC)c(OC)cc12` [Cmpd 61] as the molecule, how does the change in vivo at 1.2 mg/kg read?
Answer: 47%

Question: How did the change in vivo at 1.2 mg/kg turn out when `C=CCNC(=O)Nc1c(OC(=O)N(C(C)C)C(C)C)nc(C)c2cc(OC)c(OC)cc12` [Cmpd 62] was run?
Answer: 17%

Same assay, conditions: Canis lupus familiaris, read-out: RVR: percent change in renal vascular resistance, dose 1.2 mpk, relative to controls

Question: Which change in vivo at 1.2 mg/kg does the source give for `CCN(CC)C(=O)Oc1nc(C)c2cc(OC)c(OC)cc2c1NC(N)=O` [Cmpd 47, 3-Diethylcarbamyloxy-6,7-dimethoxy-1-methyl-4-ureidoisoquinoline] here?
Answer: -4%

Question: `C=CCNC(=O)Nc1c(OC(=O)N(CC)CC)nc(C)c2cc(OC)c(OC)cc12` [Cmpd 50] was tested. Which change in vivo at 1.2 mg/kg did it give?
Answer: -16%

Question: How did the change in vivo at 1.2 mg/kg turn out when `CCCCNC(=O)Nc1c(OC(=O)N2CCCC2)nc(C)c2cc(OC)c(OC)cc12` [Cmpd 55] was run?
Answer: -14%

Question: For `CCCCNC(=O)Nc1c(OC(=O)N(c2ccccc2)c2ccccc2)nc(C)c2cc(OC)c(OC)cc12` [Cmpd 57], which change in vivo at 1.2 mg/kg is on record?
Answer: -18%

Question: `C=CCNC(=O)Nc1c(OC(=O)N2CCCC2)nc(C)c2cc(OC)c(OC)cc12` [Cmpd 59] was tested. Which change in vivo at 1.2 mg/kg did it give?
Answer: -16%

Question: For `C=CCNC(=O)Nc1c(OC(=O)N(c2ccccc2)c2ccccc2)nc(C)c2cc(OC)c(OC)cc12` [Cmpd 60], which change in vivo at 1.2 mg/kg is on record?
Answer: -17%

Question: `CCCCNC(=O)Nc1c(OC(=O)N(C(C)C)C(C)C)nc(C)c2cc(OC)c(OC)cc12` [Cmpd 61] was tested. Which change in vivo at 1.2 mg/kg did it give?
Answer: -32%

Question: `C=CCNC(=O)Nc1c(OC(=O)N(C(C)C)C(C)C)nc(C)c2cc(OC)c(OC)cc12` [Cmpd 62] was tested. Which change in vivo at 1.2 mg/kg did it give?
Answer: -5%
